Laboratory results from ChEMBL document CHEMBL5506048, “Modular Biomimetic Strategy Enables Discovery and SAR Exploration of Oxime Macrocycles as Influenza A Virus (H1N1) Inhibitors” (J Med Chem, 2024).
Active and inactive are the calls of the source. No cut-off for these calls is given here.

Legend:
Influenza A virus [1] = test: Antiviral activity against HIV pseudotyped H5N1 HA infected in human 293T cells assessed as inhibition of viral entry into cells by measuring intensity of chemiluminescence measured after 3 days by Bright-Glo luciferase assay; format: functional, organism-based; conditions: HEK293T, time 3.0 day
[2] = Oral bioavailability in ICR (CD-1) mouse at 10 mg/kg measured upto 24 hrs by LC-MS/MS analysis; format: ADME, organism-based; conditions: in vivo
[3] = Tmax in ICR (CD-1) mouse at 10 mg/kg, po measured upto 24 hrs by LC-MS/MS analysis; format: ADME, organism-based; conditions: in vivo
Influenza A virus [4] = test: Synergistic antiviral activity against Influenza virus H1N1 A/Puerto Rico/8/34 (A/PR/8/34) infected in human Calu-3 cells assessed as combination index of 50% inhibition at 0.24 nM in presence of 170 nM oseltamivir acid; format: functional
Influenza A virus [5] = test: Antiviral activity against Influenza virus H1N1 A/Puerto Rico/8/34 (A/PR/8/34) infected in human Calu-3 cells assessed as viral RNA measured after 3 days by one-time real time PCR assay; format: functional, organism-based; conditions: Calu-3, 72 h
Influenza A virus [6] = test: Antiviral activity against Influenza virus HIN1 (A/California/07/2009 pdm09) infected in human Calu-3 cells assessed as viral RNA measured after 3 days by one-time real time PCR assay; format: functional, organism-based; conditions: Calu-3, 72 h
Influenza A virus [7] = test: Synergistic antiviral activity against Influenza virus H1N1 A/Puerto Rico/8/34 (A/PR/8/34) infected in human Calu-3 cells assessed as combination index of 50% inhibition at 15.6 nM in presence of 31 nM oseltamivir acid; format: functional
Influenza A virus [8] = test: Synergistic antiviral activity against Influenza virus H1N1 A/Puerto Rico/8/34 (A/PR/8/34) infected in human Calu-3 cells assessed as combination index of 50% inhibition at 2.61 nM in presence of 62.5 nM oseltamivir acid; format: functional
[9] = Stability of the compound in pH 7.4 PBS buffer assessed as compound remaining measured after 24 hrs by LC-MS/MS analysis; format: physicochemical; conditions: read-out: Stability
[10] = Half life in ICR (CD-1) mouse at 2 mg/kg, iv measured upto 24 hrs by LC-MS/MS analysis; format: ADME, organism-based; conditions: in vivo
Influenza A virus [11] = test: Synergistic antiviral activity against Influenza virus H1N1 A/Puerto Rico/8/34 (A/PR/8/34) infected in human Calu-3 cells assessed as combination index of 50% inhibition at 0.98 nM in presence of 172 nM oseltamivir acid; format: functional
Influenza A virus [12] = test: Antiviral activity against Influenza virus H1N1 A/Puerto Rico/8/34 (A/PR/8/34) 2.5TCID50 infected in human Calu-3 cells assessed as reduction in virus-induced cytopathic effect by measuring degeneration at 0.0156 to 37 uM measured after 3 days by immunofluorescence assay; format: functional, organism-based; conditions: dose 0.0156-37 µM, time 3.0 day
[13] = Volume of distribution in ICR (CD-1) mouse at 2 mg/kg, iv measured upto 24 hrs by LC-MS/MS analysis; format: ADME, organism-based; conditions: in vivo
Influenza A virus [14] = test: Synergistic antiviral activity against Influenza virus H1N1 A/Puerto Rico/8/34 (A/PR/8/34) infected in human Calu-3 cells assessed as combination index of 50% inhibition at 3.91 nM in presence of 83.1 nM oseltamivir acid; format: functional
Influenza A virus [15] = test: Synergistic antiviral activity against Influenza virus H1N1 A/Puerto Rico/8/34 (A/PR/8/34) infected in human Calu-3 cells assessed as combination index of 50% inhibition at 0.06 nM in presence of 450 nM oseltamivir acid; format: functional
Ebolavirus = test: Antiviral activity against HIV pseudotyped EBOV GP infected in human 293T cells assessed as inhibition of viral entry into cells by measuring intensity of chemiluminescence measured after 3 days by Bright-Glo luciferase assay; format: functional, organism-based; conditions: HEK293T, time 3.0 day
[16] = AUC (0 to infinity) in ICR (CD-1) mouse at 2 mg/kg, iv measured upto 24 hrs by LC-MS/MS analysis; format: ADME, organism-based; conditions: in vivo
Calu-3 = test: Cytotoxicity against human Calu-3 cells assessed as cell viability measured after 3 days by CellTiter-Lumi Steady Plus Luminescent Cell Viability Assay Kit; format: functional; conditions: Calu-3, 72 h, time 3 day
Influenza A virus [17] = test: Synergistic antiviral activity against Influenza virus H1N1 A/Puerto Rico/8/34 (A/PR/8/34) infected in human Calu-3 cells assessed as combination index of 50% inhibition at 28.3 nM in presence of 3.91 nM oseltamivir acid; format: functional
Influenza B virus = test: Antiviral activity against Influenza virus Flu B (B/Taiwan/2/62) infected in human Calu-3 cells assessed as viral RNA measured after 3 days by one-time real time PCR assay; format: functional, organism-based; conditions: B/Taiwan/2/62, Calu-3, 72 h
[18] = Cmax in ICR (CD-1) mouse at 10 mg/kg, po measured upto 24 hrs by LC-MS/MS analysis; format: ADME, organism-based; conditions: in vivo
[19] = Stability of the compound in RPMI 1640 cell culture medium containing 10% fetal bovine serum assessed as compound remaining measured after 24 hrs by LC-MS/MS analysis; format: physicochemical, cell-free; conditions: cattle, read-out: Stability
[20] = AUC (0 to infinity) in ICR (CD-1) mouse at 10 mg/kg, po measured upto 24 hrs by LC-MS/MS analysis; format: ADME, organism-based; conditions: in vivo
Influenza A virus [21] = test: Antiviral activity against Influenza virus H1N1 A/Puerto Rico/8/34 (A/PR/8/34) 2.5TCID50 infected in human Calu-3 cells assessed as reduction in virus-induced cytopathic effect by measuring cell rounding at 0.0156 to 37 uM measured after 3 days by immunofluorescence assay; format: functional, organism-based; conditions: dose 0.0156-37 µM, time 3.0 day
Influenza A virus [22] = test: Antiviral activity against Influenza virus H1N1 A/Puerto Rico/8/34 (A/PR/8/34) 2.5TCID50 infected in human Calu-3 cells assessed as reduction in virus-induced cytopathic effect by measuring sloughing at 0.0156 to 37 uM measured after 3 days by immunofluorescence assay; format: functional, organism-based; conditions: dose 0.0156-37 µM, time 3.0 day
[23] = Half life in ICR (CD-1) mouse at 10 mg/kg, po measured upto 24 hrs by LC-MS/MS analysis; format: ADME, organism-based; conditions: in vivo
Influenza A virus [24] = test: Antiviral activity against Influenza virus H3N2 (A/Hong Kong/8/68) infected in human Calu-3 cells assessed as viral RNA measured after 3 days by one-time real time PCR assay; format: functional, organism-based; conditions: Calu-3, 72 h
[25] = Clearance in ICR (CD-1) mouse at 2 mg/kg, iv measured upto 24 hrs by LC-MS/MS analysis; format: ADME, organism-based; conditions: in vivo
[26] = Selectivity index, ratio of CC50 for human Calu-3 cells to EC50 for antiviral activity against Influenza virus HINI A/Puerto Rico/8/34 (A/PR/8/34); format: toxicity; conditions: read-out: Selectivity Index

## C=C1Cc2cc(C(F)(F)F)ccc2C(=O)NCC2(CCC2)/C(=N/OC)CCCOC1=O
Influenza A virus [1]
  Activity: inactive
[2]
  bioavailability: 0.12%
[3]
  Tmax: 15 min
Influenza A virus [4]
  CI50: 0.32
Influenza A virus [5]
  EC50: 23 nM
Influenza A virus [5]; time 3 day
  EC90: 142 nM
Influenza A virus [6]
  EC50: 62 nM
Influenza A virus [7]
  CI50: 0.57
Influenza A virus [8]
  CI50: 0.2
[9]
  remaining at 24 h: > 90%
[10]
  half-life: 24.6 min
Influenza A virus [11]
  CI50: 0.35
Influenza A virus [12]
  Activity: Active
[13]
  Vd: 3.12 L/kg
Influenza A virus [14]
  CI50: 0.28
Influenza A virus [15]
  CI50: 0.84
Ebolavirus
  Activity: inactive
[16]
  AUC(0-inf): 222 ng·h/mL
Calu-3
  CC50: > 100000 nM
Influenza A virus [17]
  CI50: 0.93
Influenza B virus
  EC50: > 50000 nM
[18]
  Cmax: 2.42 ng/mL
[19]
  remaining at 24 h: > 90%
[20]
  AUC(0-inf): 2.65 ng·h/mL
Influenza A virus [21]
  Activity: Active
Influenza A virus [22]
  Activity: Active
[23]
  half-life: 39 min
Influenza A virus [24]
  EC50: > 50000 nM
[25]
  clearance: 151 mL/min/kg
[26]
  selectivity ratio: > 4350
